Assay results: patent US20140120083A1, “TREATMENT OF CANCERS USING PI3 KINASE ISOFORM MODULATORS” (INFINITY PHARMACEUTICALS, INC., priority 2012, published 2014)
Entries after “also recorded” stand apart in the source; their conditions may differ. Where two headings read alike, the source gives them in different places. Marks after values point to notes of the source that are not given here.

Assays:
[1] = Clinical study in healthy adult subjects, pharmacokinetics; assay type: in vivo, human; details: for half-life / AUC / Cmax: oral; for AUC: read-out: AUC(0-tau); for Cmax: read-out: Cmax
[2] = test system: TNF-α and IL-10 production; test: Cytokine production in diluted whole blood stimulated with LPS; assay type: cell-based; details: diluted whole blood (1:1), 24 hours pre-treatment, 100 μg/mL LPS
Description: Serum concentrations of a panel of human cytokines/chemokines were determined by Milliplex 96-well immuno-assay as described below.

[3] = Single-dose toxicity study (MTD); details: monkey, in vivo, po
[4] = 13-week repeat-dose safety study, monkey
[5] = Embryo/fetal developmental toxicity, rat
PI3K δ = PI3K δ (Homo sapiens, UniProt O00329); test: Clinical study in healthy subjects, basophil activation (CD63 on CCR3+ basophils, ex vivo anti-FcεR1); design: from tissue; host or cells: human whole blood (basophils)
hematologic malignancies = test: Phase 1 study in advanced hematologic malignancies, clinical response
[6] = DDI portion, 200 mg q12h ketoconazole
[7] = human, plasma, 1 mg, 1 mg Q12 h, Day 1, mean (% CV)
[8] = human, plasma, 1 mg, 1 mg Q12 h, Day 14, mean (% CV)
[9] = human, plasma, 2 mg, 2 mg Q12 h, Day 1, mean (% CV)
[10] = human, plasma, 2 mg, 2 mg Q12 h, Day 14, mean (% CV)
[11] = human, plasma, 5 mg, 5 mg Q12 h, Day 1, mean (% CV)
[12] = human, plasma, 5 mg, 5 mg Q12 h, Day 14, mean (% CV)
[13] = human, plasma, 10 mg, 10 mg Q24 h, Day 1, mean (% CV)
[14] = human, plasma, 10 mg, 10 mg Q24 h, Day 14, mean (% CV)

Chain of PI3K δ (O00329 whole entry): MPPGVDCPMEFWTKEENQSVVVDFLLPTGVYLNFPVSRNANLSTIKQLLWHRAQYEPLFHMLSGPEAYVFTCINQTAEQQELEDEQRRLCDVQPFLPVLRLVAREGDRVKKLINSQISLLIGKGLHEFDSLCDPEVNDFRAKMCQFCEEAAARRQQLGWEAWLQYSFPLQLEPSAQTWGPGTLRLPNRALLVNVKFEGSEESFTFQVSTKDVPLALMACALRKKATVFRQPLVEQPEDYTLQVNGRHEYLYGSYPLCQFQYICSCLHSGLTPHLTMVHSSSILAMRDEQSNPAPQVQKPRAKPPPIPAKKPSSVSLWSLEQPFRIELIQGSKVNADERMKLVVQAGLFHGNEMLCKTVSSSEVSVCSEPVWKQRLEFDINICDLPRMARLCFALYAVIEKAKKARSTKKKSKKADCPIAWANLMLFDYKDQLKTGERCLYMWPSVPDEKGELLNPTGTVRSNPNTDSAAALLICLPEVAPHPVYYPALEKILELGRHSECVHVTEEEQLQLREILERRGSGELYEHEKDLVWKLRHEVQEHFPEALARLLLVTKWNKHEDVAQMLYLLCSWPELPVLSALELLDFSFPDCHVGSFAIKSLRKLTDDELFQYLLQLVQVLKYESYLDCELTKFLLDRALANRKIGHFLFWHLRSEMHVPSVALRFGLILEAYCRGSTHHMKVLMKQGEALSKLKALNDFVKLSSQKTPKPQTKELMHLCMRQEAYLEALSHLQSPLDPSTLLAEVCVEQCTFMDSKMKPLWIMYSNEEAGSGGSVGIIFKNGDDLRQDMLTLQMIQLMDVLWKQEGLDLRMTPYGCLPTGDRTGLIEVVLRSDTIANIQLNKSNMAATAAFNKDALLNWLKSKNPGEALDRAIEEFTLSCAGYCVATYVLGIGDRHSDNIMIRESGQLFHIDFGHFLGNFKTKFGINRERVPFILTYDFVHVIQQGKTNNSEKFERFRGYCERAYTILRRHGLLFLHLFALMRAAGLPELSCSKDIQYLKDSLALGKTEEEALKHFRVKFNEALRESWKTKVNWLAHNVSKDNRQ
Chain of PI3K δ (P27986 whole entry partner): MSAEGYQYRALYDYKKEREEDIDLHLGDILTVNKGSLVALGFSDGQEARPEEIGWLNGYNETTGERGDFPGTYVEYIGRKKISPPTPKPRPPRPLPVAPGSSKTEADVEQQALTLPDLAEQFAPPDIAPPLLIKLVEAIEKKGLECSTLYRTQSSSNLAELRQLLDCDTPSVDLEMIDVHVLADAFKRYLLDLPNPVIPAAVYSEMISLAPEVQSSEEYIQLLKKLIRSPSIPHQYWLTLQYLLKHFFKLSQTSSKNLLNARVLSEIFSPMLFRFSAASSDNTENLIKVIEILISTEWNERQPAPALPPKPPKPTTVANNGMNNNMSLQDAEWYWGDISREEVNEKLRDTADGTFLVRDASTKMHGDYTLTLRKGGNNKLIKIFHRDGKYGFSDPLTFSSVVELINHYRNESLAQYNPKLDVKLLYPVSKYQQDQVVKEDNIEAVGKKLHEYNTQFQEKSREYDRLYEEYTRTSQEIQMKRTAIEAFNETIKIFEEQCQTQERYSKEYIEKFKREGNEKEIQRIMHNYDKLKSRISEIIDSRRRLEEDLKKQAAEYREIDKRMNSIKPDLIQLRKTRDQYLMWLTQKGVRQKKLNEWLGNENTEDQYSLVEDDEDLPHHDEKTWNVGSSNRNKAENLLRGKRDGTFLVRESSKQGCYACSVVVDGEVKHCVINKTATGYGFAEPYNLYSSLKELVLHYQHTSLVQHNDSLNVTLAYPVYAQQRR

Compound: C[C@H](Nc1ncnc2[nH]cnc12)c1cc2cccc(Cl)c2c(=O)n1-c1ccccc1 [Compound 292]
- T1/2 ([1]; 30 mg single dose, mean (% CV)): 8.12 (18) hr
- increase of AUC0-inf in the presence of ketoconazole [1, 6]: ~295%
- increase of AUC0-last in the presence of ketoconazole [1, 6]: ~285%
- increase of Cmax in the presence of ketoconazole [1, 6]: approximately 66%
- excretion of unchanged compound in urine ([1]; healthy subjects): < 2 % of the administered dose
- accumulation ([1]; healthy subjects, 14 days of Q12 h oral administration): less than 2 fold
- half-life [1, 7]: 3.46 h
- AUC [1, 7]: 124 ng·h/mL
- Cmax [1, 7]: 49.1 ng/mL
- half-life [1, 8]: 6.46 h
- AUC [1, 8]: 199 ng·h/mL
- Cmax [1, 8]: 66.8 ng/mL
- half-life [1, 9]: 6.34 h
- AUC [1, 9]: 290 ng·h/mL
- Cmax [1, 9]: 101 ng/mL
- half-life [1, 10]: 9.75 h
- AUC [1, 10]: 524 ng·h/mL
- Cmax [1, 10]: 140 ng/mL
- half-life [1, 11]: 5.76 h
- AUC [1, 11]: 774 ng·h/mL
- Cmax [1, 11]: 257 ng/mL
- half-life [1, 12]: 8.32 h
- AUC [1, 12]: 1290 ng·h/mL
- Cmax [1, 12]: 355 ng/mL
- half-life [1, 13]: 6 h
- AUC [1, 13]: 1530 ng·h/mL
- Cmax [1, 13]: 553 ng/mL
- half-life [1, 14]: 11.7 h
- AUC [1, 14]: 2230 ng·h/mL
- Cmax [1, 14]: 605 ng/mL
- AUC(0-t) ([1]; human, plasma, healthy subjects, 5 mg BID, 14 days of oral dosing, read-out: mean AUC0-24 hr): 2580 ng·h/mL
- IL-10 production [2]: inhibition
- TNF-α production [2]: inhibition
- MTD [3]: 500 mg/kg
- NOAEL ([4]; 13-week monkey study, oral gavage): 60 mg/m^2/day
- NOAEL at 13 weeks ([4]; both, cynomolgus monkey, in vivo, po): 5 mg/kg/day
- mean AUC0-24 hr at the NOAEL ([4]; monkey, Day 91, combined sexes): 4015 ng·h/mL
- NOAEL ([5]; female, rat, in vivo): 35 mg/kg/day
- mean AUC0-24 hr at the NOAEL ([5]; pregnant rats, last day of dosing): 62200 ng·h/mL
- maternal and fetal NOAEL ([5]; rat): 210 mg/m^2/day
- basophil activation (CD63 expression on CCR3+ basophils) (PI3K δ; all single and multiple dose levels): dose-dependent reduction; also recorded: reduced in a dose-dependent manner
- dose at which maximal PD response was achieved (PI3K δ; single dose): 5 mg
- onset of clinical activity (hematologic malignancies; CLL/SLL): Rapid onset
- responses in evaluable patients (hematologic malignancies; CLL/SLL, 8, 15, and 25 mg BID dose levels): ⅔
- Best Observed Response CR (hematologic malignancies; CLL/SLL, 11 evaluable): 0 n
- Best Observed Response PR (hematologic malignancies; CLL/SLL, 11 evaluable): 6 n
- Best Observed Response SD (hematologic malignancies; CLL/SLL, 11 evaluable, four nodal responses): 4^c n
- Best Observed Response PR (hematologic malignancies; HL, 2 evaluable): 0 n
- Best Observed Response SD (hematologic malignancies; HL, 2 evaluable): 0 n
- Best Observed Response CR (hematologic malignancies; MCL, 3 evaluable): 0 n
- Best Observed Response PR (hematologic malignancies; MCL, 3 evaluable): 2 n
- Best Observed Response SD (hematologic malignancies; MCL, 3 evaluable): 0 n
- responses in evaluable patients (hematologic malignancies; MCL, 8, 15, and 25 mg BID dose levels): 1/1
- Best Observed Response CR (hematologic malignancies; MM, 3 evaluable): 0 n
- Best Observed Response PD (hematologic malignancies; MM, 3 evaluable): 2 n
- Best Observed Response PR (hematologic malignancies; MM, 3 evaluable): 0 n
- Best Observed Response PD (hematologic malignancies; T-Cell Lymphoma, 6 evaluable): 3 n
- doses at which responses were observed (hematologic malignancies; T-cell lymphoma and Hodgkin lymphoma): ≥ 50 mg BID
- Best Observed Response CR (hematologic malignancies; aNHL, 3 evaluable): 0 n
- Best Observed Response PD (hematologic malignancies; aNHL, 3 evaluable): 2 n
- Best Observed Response PR (hematologic malignancies; aNHL, 3 evaluable): 0 n
- tumor mass (hematologic malignancies; all indications and all dose levels evaluated): Reduction in tumor mass
- responses in evaluable patients (hematologic malignancies; iNHL, 8, 15, and 25 mg BID dose levels): ½
- Best Observed Response PR (hematologic malignancies; iNHL, 13 evaluable): 7 n
- Best Observed Response SD (hematologic malignancies; iNHL, 13 evaluable): 4 n
- doses at which responses were observed (hematologic malignancies; iNHL, CLL/SLL, and MCL): ≤ 50 mg BID
- pulmonary metastases by PET/CT (hematologic malignancies; patient, enteropathy-associated T-cell lymphoma, 2 cycles, 60 mg BID): complete resolution
